In patent US20070249670A1, “Glycogen Phosphorylase Inhibitor Compounds and Pharmaceutical Compositions Thereof” (SMITHKLINE BEECHAM CORPORATION, priority 2004, published 2007):
Counter-ions that a name gives are not always drawn.

The compounds below were run against T1, human liver glycogen phosphorylase a (HLGPa) (Homo sapiens, UniProt P06737) (assay: Human liver glycogen phosphorylase a enzymatic activity assay (coupled, fluorescent resorufin readout, with and without 10 mM glucose)). Settings: human liver glycogen phosphorylase a enzymatic activity assay.
T1 construct: creating a full-length cDNA fused at the 5′ end to codons for methionine-glycine-alanine-histidine; 6xHis tag (leader Met-Gly-Ala-His6-Gly-Gly) (N); made in house; host or cells: E. coli (bacterial expression plasmid pTXK1007LTev)
T1 sequence (P06737 2-847 limits assumed): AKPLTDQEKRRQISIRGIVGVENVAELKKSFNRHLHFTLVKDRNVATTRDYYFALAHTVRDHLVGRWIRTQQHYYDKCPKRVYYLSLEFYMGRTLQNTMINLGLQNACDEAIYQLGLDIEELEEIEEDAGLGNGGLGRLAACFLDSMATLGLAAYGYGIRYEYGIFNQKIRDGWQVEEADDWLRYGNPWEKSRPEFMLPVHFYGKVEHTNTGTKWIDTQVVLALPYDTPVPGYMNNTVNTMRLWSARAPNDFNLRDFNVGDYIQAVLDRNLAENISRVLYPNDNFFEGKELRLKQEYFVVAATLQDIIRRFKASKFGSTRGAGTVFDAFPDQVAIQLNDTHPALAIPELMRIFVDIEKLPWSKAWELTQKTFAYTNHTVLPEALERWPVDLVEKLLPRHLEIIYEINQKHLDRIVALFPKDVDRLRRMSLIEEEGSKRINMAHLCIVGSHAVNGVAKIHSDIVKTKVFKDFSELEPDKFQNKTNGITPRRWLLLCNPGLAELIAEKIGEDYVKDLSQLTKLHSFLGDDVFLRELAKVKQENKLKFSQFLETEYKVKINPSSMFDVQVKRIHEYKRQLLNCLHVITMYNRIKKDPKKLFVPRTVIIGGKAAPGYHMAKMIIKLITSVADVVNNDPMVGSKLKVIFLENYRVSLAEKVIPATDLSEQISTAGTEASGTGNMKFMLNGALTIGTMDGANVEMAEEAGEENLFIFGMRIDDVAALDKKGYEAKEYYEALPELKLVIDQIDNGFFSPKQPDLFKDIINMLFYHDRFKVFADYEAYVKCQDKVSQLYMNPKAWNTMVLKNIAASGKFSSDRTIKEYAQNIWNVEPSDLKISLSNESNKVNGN
Assay type: biochemical

SMILES	IC50 [nM]
CC[C@H](C)[C@H](NC(=O)c1cc(OC)c(OC)cc1NC(=O)Nc1c(C)cccc1Cl)C(=O)O [Example 71, N-[2-({[(2-chloro-6-methylphenyl)amino]carbonyl}amino)-4,5-dimethoxybenzoyl]-L-isoleucine]	22300
N#Cc1ccc(-c2cc(NC(=O)Nc3c(Cl)cccc3Cl)c(C(=O)N[C@H](C(=O)O)C3CCCCC3)s2)cc1 [Example 407, (2S)-({[5-(4-cyanophenyl)-3-({[(2,6-dichlorophenyl)amino]carbonyl}amino)-2-thienyl]carbonyl}amino)(cyclohexyl)ethanoic acid]	370
Cc1cccc(Cl)c1NC(=O)Nc1sc2ccccc2c1C(=O)N[C@H](C(=O)O)C1CCCCC1 [Example 142, (2S)-({[2-({[(2-chloro-6-methylphenyl)amino]carbonyl}amino)-1-benzothien-3-yl]carbonyl}amino)(cyclohexyl)acetic acid]	1510
Cc1cc(C)c(NC(=O)Nc2cc(-c3ccc(F)c(F)c3)ccc2C(=O)N[C@@H](C(=O)O)[C@H](C)OC(C)(C)C)c(C)c1 [Example 522, N-{[3′,4′-difluoro-3-({[(2,4,6-trimethylphenyl)amino]carbonyl}amino)-4-biphenylyl]carbonyl}-O-(1,1-dimethylethyl)-D-threonine]	675
Cc1ccccc1NC(=O)Nc1cc2ccccc2cc1C(=O)N[C@@H](CCC(=O)O)C(=O)O [Example 42, N-[3-({[(2-methylphenyl)amino]carbonyl}amino)-2-naphthoyl]-L-glutamic acid]	28300
Cc1cccc(Cl)c1NC(=O)Nc1cc2ccccc2cc1C(=O)NCC(=O)O [Example 85, N-[3-({[(2-chloro-6-methylphenyl)amino]carbonyl}amino)-2-naphthoyl]glycine]	570
Cc1ccccc1NC(=O)Nc1cc2ccccc2cc1C(=O)NC(C(=O)O)c1ccccc1 (stereo not drawn) [Example 95, {[3-({[(2-methylphenyl)amino]carbonyl}amino)-2-naphthoyl]amino}(phenyl)acetic acid]	9890
CC[C@H](C)[C@H](NC(=O)c1cc2ccccc2cc1NC(=O)Nc1c(C)cccc1Cl)C(=O)O [Example 38, N-[3-({[(2-chloro-6-methylphenyl)amino]carbonyl}amino)-2-naphthoyl]-L-isoleucine]	280
O=C(Nc1cc(Cl)ccc1C(=O)O)Nc1c(Cl)cccc1Cl [Example 165, 4-Chloro-2-({[(2,6-dichlorophenyl)amino]carbonyl}amino)benzoic acid]	15100
Cc1noc(C)c1NC(=O)Nc1cc2ccccc2cc1C(=O)N[C@@H](CC(=O)O)C(=O)O [Example 147, N-{[3-({[(3,5-dimethyl-4-isoxazolyl)amino]carbonyl}amino)-2-naphthalenyl]carbonyl}-L-aspartic acid]	29100
Cc1ccccc1NC(=O)Nc1cc2ccccc2cc1C(=O)N[C@H](C(=O)O)C1CCCCC1 [Example 143, (2S)-cyclohexyl{[3-({[(2-methylphenyl)amino]carbonyl}amino)-2-naphthoyl]amino}acetic acid]	30300
O=C(Nc1cc(-c2ccc(OC(F)(F)F)cc2)sc1C(=O)O)Nc1c(Cl)cccc1Cl [Example 434, 3-({[(2,6-dichlorophenyl)amino]carbonyl}amino)-5-{4-[(trifluoromethyl)oxy]phenyl}-2-thiophenecarboxylic acid]	2120
Cc1cccc(Cl)c1NC(=O)Nc1ccccc1C(=O)N[C@@H](CC(=O)O)C(=O)O [Example 87, N-[2-({[(2-chloro-6-methylphenyl)amino]carbonyl}amino)benzoyl]-L-aspartic acid]	24500

Continued, values first:

IC50 [nM]	SMILES
270	Cc1cccc(Cl)c1NC(=O)Nc1cc2ccccc2cc1C(=O)N[C@@H](Cc1c[nH]c2ccccc12)C(=O)O [Example 65, N-[3-({[(2-chloro-6-methylphenyl)amino]carbonyl}amino)-2-naphthoyl]-L-tryptophan trifluoroacetate]
220	Cc1cccc(C)c1NC(=O)Nc1cc(-c2ccsc2)ccc1C(=O)N[C@H](C(=O)O)C1CCCCC1 [Example 184, (2S)-Cyclohexyl({[2-({[(2,6-dimethylphenyl)amino]carbonyl}amino)-4-(3-thienyl)phenyl]carbonyl}amino)ethanoic acid]
110	Cc1cc(C)c(NC(=O)Nc2cc3ccccc3cc2C(=O)Nc2cc(C(=O)O)cc(C(=O)O)c2)c(C)c1 [Example 498, 5-({[3-({[(2,4,6-trimethylphenyl)amino]carbonyl}amino)-2-naphthalenyl]carbonyl}amino)-1,3-benzenedicarboxylic acid]
27	COc1ccc(-c2cc(C(=O)N[C@H](C(=O)O)C3CCCCC3)c(NC(=O)Nc3c(Cl)cc(OC(F)(F)F)cc3Cl)s2)cc1 [Example 427, (2S)-cyclohexyl[({2-{[({2,6-dichloro-4-[(trifluoromethyl)oxy]phenyl}amino)carbonyl]amino}-5-[4-(methyloxy)phenyl]-3-thienyl}carbonyl)amino]ethanoic acid]
26	COc1ccc(-c2cc(NC(=O)Nc3c(C)cc(C)cc3C)c(C(=O)N3CCC[C@H]3C(=O)O)s2)cc1 [Example 447, 1-{[5-[4-(methyloxy)phenyl]-3-({[(2,4,6-trimethylphenyl)amino]carbonyl}amino)-2-thienyl]carbonyl}-L-proline]
12	COc1ccc(-c2cc(NC(=O)Nc3c(C)cc(C)cc3C)c(C(=O)N[C@H](C(=O)O)C3CCCCC3)s2)cc1 [Example 439, (2S)-cyclohexyl({[5-[4-(methyloxy)phenyl]-3-({[(2,4,6-trimethylphenyl)amino]carbonyl}amino)-2-thienyl]carbonyl}amino)ethanoic acid]
8	CCCc1cc(C)c(NC(=O)Nc2cc(F)ccc2C(=O)N[C@H](C(=O)O)C2CCCCC2)c(C)c1 [Example 477, (2S)-cyclohexyl({[2-({[(2,6-dimethyl-4-propylphenyl)amino]carbonyl}amino)-4-fluorophenyl]carbonyl}amino)ethanoic acid]

Same assay, conditions: human liver glycogen phosphorylase a; table does not say whether with or without 10 mM glucose

IC50 [nM]	SMILES
11	Cc1cc(C)c(NC(=O)Nc2cc3ccccc3nc2C(=O)NC2(C(=O)O)CCCCCC2)c(C)c1 [Example 306, 1-({[3-({[(2,4,6-trimethylphenyl)amino]carbonyl}amino)-2-quinolinyl]carbonyl}amino)cycloheptanecarboxylic acid]
120	Cc1cc(C)c(NC(=O)Nc2cc3ccccc3cc2C(=O)NC(CCC(C)CC(C)(C)C)C(=O)O)c(C)c1 (stereo not drawn) [Example 264, 5,7,7-trimethyl-2-({[3-({[(2,4,6-trimethylphenyl)amino]carbonyl}amino)-2-naphthalenyl]carbonyl}amino)octanoic acid]
810	Cc1cc(C)c(NC(=O)Nc2cc3ccccc3cc2C(=O)NC(C(=O)O)C2CCC(NC3CCC3)CC2)c(C)c1 (mixture of isomers) [Example 347, (cis and trans)-[4-(cyclobutylamino)cyclohexyl]({[3-({[(2,4,6-trimethylphenyl)amino]carbonyl}amino)-2-naphthalenyl]carbonyl}amino)acetic acid]
75	O=C(Nc1cc(-c2ccccc2)ccc1C(=O)N[C@H](C(=O)O)C1CCCCC1)Nc1c(Cl)cccc1Cl [Example 203, (2S)-Cyclohexyl({[3-({[(2,6-dichlorophenyl)amino]carbonyl}amino)-4-biphenylyl]carbonyl}amino)ethanoic acid]
